Reference: patent publication US7825102B2, “Treatment of dry eye conditions” (Can-Fite Biopharma Ltd., priority 2004, dated 2010)
“Also recorded” adds a separate entry of the source.

What was measured:
Format in all cases: in vivo, human
[1] = test system: patient with active rheumatoid arthritis; experiment: Phase 2 clinical trial: condition of the RA in the same patient; conditions: one patient; blinded dose 0.1, 1.0 or 4.0 mg q 12 h oral, 12 weeks
Source text: The patient took part in a phase 2, multicenter, randomized, double-blind, parallel-group, dose-ranging study of the safety and preliminary efficacy of daily IB-MECA administered orally for 12 weeks to patients with active rheumatoid arthritis. The patient is a person with a 7 year history of RA, previously treated with 3 disease-modifying anti-rheumatic drugs (DMARDs), and a history of 2-3 years of dry eyes treated with tear substitutes a few times a day. After a 4 week DMARD washout period, the patient was treated with a blinded dose of IB-MECA—either 0.1, 1.0 or 4.0 mg q 12 h for 12 weeks. They are currently continuing IB-MECA treatment under a long term extension protocol of the original 12 weeks study.

[2] = test system: RA patients who also suffered from Sicca (dry eyes); experiment: Schirmer test in RA patients with Sicca given oral IB-MECA capsules twice daily
Protocol: The IB-MECA was formulated in oval softgel capsules. The capsules contained solutions of IB-MECA in Cremophor RH 40 and Miglyol 812. The capsules contained a dose of 0.1, 1 or 4 mg of IB-MECA, the exact composition of each capsules' type is shown in the following Tabels 1-3: The capsules with IB-MECA were given to patients orally twice daily. All patients had rheumatoid arthritis (RA) and were give IB-MECA within the framework of a clinical study aimed at testing the effect of IB-MECA in modifying RA disease symptoms in these patients. The patients received randomly capsules of one of the above there doses. The patients received the IB-MECA for a period of 12 weeks. 4 out of the treated patients also suffered from Sicca and the effect of IB-MECA on their dry eye symptoms was examined as well. Specifically, four patients at the age 58±4 years who suffered from RA for 8±2 years were followed. At base line, the patients had elevated levels of rheumatoid factor, i.e., 313±120 IU/ml (0<normal<40) and had suffered from dry eyes for 5±1.6 years. Upon treatment with IB-MECA for 6.25±1.1 months, an improvement in Schirmer's test from 8.5±1.4 mm to 15.6±2.9 mm was observed.

[3] = test system: patient with rheumatoid arthritis (RA) and secondary Sjogren symptoms, mainly manifested by dry eye; experiment: Phase 2 clinical trial: dry eye symptoms of one patient with RA and secondary Sjogren symptoms
Source text: A patient with rheumatoid arthritis (RA) and secondary Sjogren symptoms, mainly manifested by dry eye, treated for years with eye drops (tear substitutes) participated in a phase 2 clinical trial with IB-MECA for the treatment of active RA. […] The patient took part in a phase 2, multicenter, randomized, double-blind, parallel-group, dose-ranging study of the safety and preliminary efficacy of daily IB-MECA administered orally for 12 weeks to patients with active rheumatoid arthritis. The patient is a person with a 7 year history of RA, previously treated with 3 disease-modifying anti-rheumatic drugs (DMARDs), and a history of 2-3 years of dry eyes treated with tear substitutes a few times a day. After a 4 week DMARD washout period, the patient was treated with a blinded dose of IB-MECA—either 0.1, 1.0 or 4.0 mg q 12 h for 12 weeks. They are currently continuing IB-MECA treatment under a long term extension protocol of the original 12 weeks study.

[4] = Patient 3, dose 4.0 twice daily oral, 7 months treatment, base line 5

Q: Which “condition of the RA (swollen and tender joints, ESR and CRP, global assessments, pain and disability)” value [1] does the source give for `CNC(=O)[C@H]1O[C@@H](n2cnc3c(NCc4cccc(I)c4)ncnc32)[C@H](O)[C@@H]1O` [IB-MECA, N^6-(3-iodobenzyl)-adenosine-5′-N-methyluronamide] here?
A: marked improvement

Q: What about the “Schirmer test Left eye End of study” value ([2]; Mean of 4 patients, doses 0.1-4.0 twice daily, mean 6.25 months treatment, base line mean 6.75) of the same compound?
A: 16.5 mm

Q: What about the “Schirmer test Right eye End of study” value ([2]; Mean of 4 patients, doses 0.1-4.0 twice daily, mean 6.25 months treatment, base line mean 10.25) of the same compound?
A: 14.75 mm

Q: What about the “Schirmer test Left eye End of study” value ([2]; Patient 1, dose 0.1 twice daily oral, 4 months treatment, base line 6) of the same compound?
A: 9 mm

Q: And the “Schirmer test Right eye End of study” value ([2]; Patient 1, dose 0.1 twice daily oral, 4 months treatment, base line 14)?
A: 9 mm

Q: And the “Schirmer test Left eye End of study” value ([2]; Patient 2, dose 1.0 twice daily oral, 5 months treatment, base line 10)?
A: 32 mm

Q: What about the “Schirmer test Right eye End of study” value ([2]; Patient 2, dose 1.0 twice daily oral, 5 months treatment, base line 15) of the same compound?
A: 23 mm

Q: And the “Schirmer test Left eye End of study” value [2, 4]?
A: 16 mm

Q: And the “Schirmer test Right eye End of study” value [2, 4]?
A: 17 mm

Q: And the “Schirmer test Left eye End of study” value ([2]; Patient 4, dose 1.0 twice daily oral, 9 months treatment, base line 6)?
A: 9 mm

Q: What about the “Schirmer test Right eye End of study” value ([2]; Patient 4, dose 1.0 twice daily oral, 9 months treatment, base line 7) of the same compound?
A: 10 mm

Q: And the “Schirmer's test after treatment” value ([2]; four RA patients, treatment for 6.25±1.1 months, improvement from 8.5±1.4 mm at base line)?
A: 15.6±2.9 mm

Q: What about the “symptoms of dry eye (secondary Sjogren's syndrome)” value ([3]; blinded dose 0.1, 1.0 or 4.0 mg q 12 h oral, 12 weeks plus extension) of the same compound?
A: improved significantly; also recorded: substantial improvement

Q: What about the “time of IB-MECA administration after which tear substitutes were no longer needed” value ([3]; patient-reported, blinded dose 0.1, 1.0 or 4.0 mg q 12 h oral) of the same compound?
A: 3-4 weeks

Q: What about the “current dry eye symptoms under continued treatment” value ([3]; patient-reported, long term extension protocol) of the same compound?
A: no symptoms of dry eye
